# Source: ChEMBL document CHEMBL1201862, “PubChem BioAssay data set” (2004)
# Calls of active or inactive are those of the source. No stated cut-off is given here; in the data, actives have a measured IC50 and inactives only a lower limit.
# Target: Envelope glycoprotein gp160 (Human immunodeficiency virus 1, UniProt Q6QLK5)
# Assay: inhibitors of HIV fusion peptide binding, primary screen, biochemical, uHTS, fluorescence dequenching (AID 1986)
# Chain of Envelope glycoprotein gp160 (Q6QLK5 whole entry, the tested form may be a part): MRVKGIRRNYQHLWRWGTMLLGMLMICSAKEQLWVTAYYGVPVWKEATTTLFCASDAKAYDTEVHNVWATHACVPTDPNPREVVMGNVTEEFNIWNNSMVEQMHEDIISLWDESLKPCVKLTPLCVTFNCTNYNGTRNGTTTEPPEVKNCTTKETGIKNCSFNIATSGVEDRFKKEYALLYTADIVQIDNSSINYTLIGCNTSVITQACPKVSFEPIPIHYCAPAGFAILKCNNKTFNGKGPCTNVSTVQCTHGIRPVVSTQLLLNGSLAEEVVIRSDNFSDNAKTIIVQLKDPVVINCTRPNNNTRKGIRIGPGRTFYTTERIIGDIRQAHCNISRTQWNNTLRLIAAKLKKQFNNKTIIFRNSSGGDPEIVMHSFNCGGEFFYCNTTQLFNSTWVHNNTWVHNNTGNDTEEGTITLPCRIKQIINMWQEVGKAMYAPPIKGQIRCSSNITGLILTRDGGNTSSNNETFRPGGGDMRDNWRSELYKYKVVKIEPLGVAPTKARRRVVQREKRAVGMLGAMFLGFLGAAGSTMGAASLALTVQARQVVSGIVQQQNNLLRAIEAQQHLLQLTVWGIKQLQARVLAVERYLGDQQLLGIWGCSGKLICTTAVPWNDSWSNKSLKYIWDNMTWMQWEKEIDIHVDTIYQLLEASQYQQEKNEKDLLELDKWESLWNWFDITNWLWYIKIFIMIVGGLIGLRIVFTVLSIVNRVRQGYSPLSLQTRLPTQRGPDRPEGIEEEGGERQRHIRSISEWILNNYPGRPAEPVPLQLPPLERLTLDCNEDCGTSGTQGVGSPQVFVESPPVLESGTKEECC
row,Compound,IC50
1,Cc1ccc2nc(N3C(=O)C(O)=C(C(=O)c4ccco4)C3c3cccc(O)c3)sc2c1 (stereo not drawn),16.9 µM (active)
2,CC1(C)CC(=O)C2=C(C1)c1c(ccc3ccccc13)NC2c1cc([N+](=O)[O-])cc([N+](=O)[O-])c1O (stereo not drawn),9.83 µM (active)
3,CC(C)COc1ccc(-c2nn(-c3ccccc3)cc2/C=C2/SC(=S)N(CC(=O)O)C2=O)cc1,8.09 µM (active)
